{
  "source": "patent US20060127400A1",
  "about": "“Activation of regulatory T cells by alpha-melanocyte stimulating hormone” (THE SCHEPENS EYE RESEARCH INSTITUTE, INC., priority 1999, published 2006)",
  "key": {"CD25+ CD4+ T cells": {"test_system": "CD25+ CD4+ T cells", "test": "two-color flow cytometry for CD4 and CD25 on activated primed T cells", "assay_type": "cell-based, mouse", "conditions": "TCR-stimulated in the presence or absence of α-MSH 30 pg/ml, 24 hours", "protocol": "In another example, for immunostaining and fluorescence-activated cell sorting, T cells (2×10^6 cells) from 24 hour cultures of the α-MSH-treated activated T cells were centrifuged and washed once in PBS/BSA buffer (10 mM PBS, 3% BSA). The cells were resuspended in 50 μl of PBS/BSA buffer containing 2 μg of PE-conjugated anti-CD4 and FITC-conjugated anti-CD25 antibodies and incubated for 30 minutes room temperature. The cells were centrifuged, resuspended in 1 ml of PBS/BSA buffer, and washed two times. The stained cells were sorted by a Coulter ELITE cell sorter calibrated for two color fluorescence. The cells were sorted into two populations, CD25^+ CD4^+ cells and the remaining cells (all CD4^− cells plus CD25^−CD4^+ cells). The sorted cells were used immediately in the in vitro regulatory T cell assay.\nα-MSH induced CD25^+ CD4^+ regulatory T cells. To characterize the regulatory T cells induced by α-MSH, we assayed through flow cytometry the possibility that α-MSH induces CD25^+ (IL-2Rα) CD4^+ regulatory T cells. […] The cells were analyzed by two-color flow cytometry after staining with anti-CD4 and anti-CD25. Presented is a representative dot plot of the flow cytometry seen in four separate staining experiments. (B) Only T cells activated in the presence of α-MSH, were stained and sorted based on the coexpression of CD4 and CD25. […]"}, "primed T cells": {"test_system": "primed T cells", "test": "lymphokine production by TCR-stimulated primed T cells, sandwich ELISA of culture supernatant", "assay_type": "cell-based, mouse (BALB/c)", "conditions": "48 h supernatant", "protocol": "Sandwich Enzyme Linked Immunosorbent Assay (ELISA). The wells of a 96-well flexible microtiter plate (Falcon, Oxnard, Calif.) were coated with capturing monoclonal antibody (anti-IFN-γ; Pharmingen, San Diego, Calif.) to the cytokine being assayed. The plate was incubated overnight at 4° C. and was washed with a solution of phosphate buffer saline, […] and 1% BSA (wash buffer) and blocked with PBS plus 1% BSA (PBS-BSA). The plate was incubated for 1 hour room temperature and washed. Samples were added to the wells and the plate was incubated for 3 hours at room temperature. The plate was washed 3 times and into each well 100 μl of 1.0 μg/ml of biotinylated-detecting monoclonal anti-IFN-γ antibody (Pharmingen) was added. The plate was incubated for 1 hour and washed 3 times. Strepavidin-β-galactosidase (Gibco/BRL), 100 μl, was added to the wells and the plate was incubated for 30 min and washed 5 times. The substrate chlorophenyl-red-β-D-galactoside (CPRG: Calbiochem, San Diego, Calif.) was added to the wells and color was allowed to develop for 30 min. The optical density of the converted CPRG was read on a standard ELISA plate reader at a wavelength of 570 nm. The INF-γ concentration of the standard samples were plotted against their OD to create a standard curve. Using this standard curve, the concentration of INF-γ in the assayed culture supernatant was determined from the OD of the test well and sample dilution factor.\nα-MSH treatment of primed T cells. […] The cells were collected onto filter paper using a Tomtec Plate Harvester 96, and radiolabel was measured using a Wallac 1205 Betaplate Liquid Scintillation Counter. […]\nIn FIG. 16A, proliferation was measured by adding to the T cell cultures 3H-thymidine 24 hours after activation and measuring the counts per minute (CPM) 24 hours later. In FIG. 16(B-D), lymphokine production was measured by assaying the 48 hour culture supernatants by sandwich ELISA for IFN-γ, IL-4, and IL-10. […]"}, "[1]": {"conditions": "TCR-stimulated in the presence of α-MSH"}},
  "note": "Entries after “also recorded” stand apart in the source; their conditions may differ. No end group written: not given here.",
  "data": [
    {"substance": "α-melanocyte stimulating hormone (SYSMEHFRWGKPV; not fully specified; ends and bridges not checked; UniProt P01189 138-150, looked up) [α-MSH, synthetic α-MSH (Peninsula Laboratories); thirteen-amino acid neuropeptide derived from POMC]", "values": [
      {"measurement": "percentage of CD25+ CD4+ cells", "setting": "CD25+ CD4+ T cells", "result": "did not change"},
      {"measurement": "IL-4 in culture supernatant", "setting": "primed T cells; [1]", "result": "no effect; also recorded: no IL-4 was detected"},
      {"measurement": "IL-10 production", "setting": "primed T cells; [1]", "result": "suppressed"},
      {"measurement": "IFN-γ production by TCR-stimulated primed T cells", "setting": "primed T cells; versus T cells TCR-stimulated in the absence of α-MSH", "result": "significantly (p=0.05) suppressed"}
    ]}
  ]
}
